Marks after values point to notes of the source that are not given here.
What was measured:
kindled motor seizure = assay: Hippocampus kindling screen; format: in vivo; settings: Rats IP
From the text: The hippocampus kindling screen is a useful adjunct to the traditional MES and scMet tests for identification of a substance potential utility for treating complex partial seizures. […] No toxic effects were observed as indicated by the lack of motor impairment on the rats tested.

α1β3γ2 GABAA receptors = target: T1, α1β3γ2 GABAA receptors (Homo sapiens, UniProt P14867+P18507); assay: Voltage clamp recordings from Xenopus oocytes; format: cell-based
T1 construct: expressed in transfected cells; host or cells: Xenopus laevis oocytes injected with cRNA
Experimental: The GABAA subunit selectivity of several compounds prepared as described above were determined using voltage clamp recordings from Xenopus oocytes that expressed that αxβ3γ2 GABAA receptor.
In Vitro Expression of GABAA Receptor Subunits The methods used for isolating, culturing, injecting and defolliculating of the oocytes were identical with those described by E. Sigel. […] European journal of pharmacology 1995, 289, (1), 87-95; Sigel, E.;& Baur, R., Allosteric modulation by benzodiazepine receptor ligands of the GABAA receptor channel expressed in Xenopus oocytes. J. Neurosci. 1988, 8, (1), 289-95; Sigel, E.; & Minier, F., The Xenopus oocyte: System for the study of functional expression and modulation of proteins. Molecular Nutrition & Food Research 2005, 49, (3), 228-234. Mature female Xenopus laevis (Nasco, Wis.) were anaesthetized in a bath of ice-cold 0.17% Tricain (Ethyl-m-aminobenzoate, Sigma, Mo.) before decapitation and removal of the frog ovary. Stage 5 to 6 oocytes with the follicle cell layer around them were singled out of the ovary using a platinum wire loop. […]
Voltage Clamp Recordings From Xenopus Oocytes. […] Data were digitized, recorded and measured using a Digidata 1322A data acquisition system (Axon Instruments, Union City, Calif.). […]

[1] = Toxicity (TOX), rotorod procedure, mice; format: in vivo; settings: mouse, in vivo; Mice IP, rotorod; read-out: TD50 TOX
[2] = target: T2, GABAA/α5 (α5β3γ2 GABAA receptors) (Homo sapiens, UniProt P18507+P31644); assay: Competitive binding assay, [3H]flunitrazepam; settings: Binding Affinity at GABAA/α5, αxβ3γ2, [3H]flunitrazepam competition
T2 construct: expressed in transfected cells
In short: (§1)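 Bound ligand was collected on 0.3% polyethyleneimine-pretreated GF/C filters with three ice-cold washes and quantified by liquid scintillation counting; membrane protein was determined against a BSA standard.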

[3] = target: T3, GABAA/α2 (α2β3γ2 GABAA receptors) (Homo sapiens, UniProt P18507+P47869); assay: Competitive binding assay, [3H]flunitrazepam; settings: Binding Affinity at GABAA/α2, αxβ3γ2, [3H]flunitrazepam competition
T3 construct: expressed in transfected cells
In short: as §1

[4] = target: T4, GABAA/α1 (α1β3γ2 GABAA receptors) (Homo sapiens, UniProt P14867+P18507); assay: Competitive binding assay, [3H]flunitrazepam; settings: Binding Affinity at GABAA/α1, αxβ3γ2, [3H]flunitrazepam competition
T4 construct: expressed in transfected cells
In short: as §1

| SMILES | Tox, animals toxic/tested (kindled motor seizure; 50 mg/kg after 1.0 h) | Afterdischarge Duration, Drug (Low-High) (kindled motor seizure; 50 mg/kg after 1.0 h, pre-drug 47-61) | efficacy at α1 (percent of control current) (α1β3γ2 GABAA receptors) [%] | TD50 [1] [mg/kg] | Tox, animals toxic/tested (kindled motor seizure; 30 mg/kg after 1.0 h) | Afterdischarge Duration, Drug (Low-High) (kindled motor seizure; 30 mg/kg after 1.0 h, pre-drug 30-41) | Ki [2] [nM] | Ki [3] [nM] | Ki [4] [nM] |
| --- | --- | --- | --- | --- | --- | --- | --- | --- | --- |
| C#Cc1ccc2c(c1)C(c1ccccn1)=NCc1c(C(=O)OCC)ncn1-2 [Hz166 (106), 8-Acetylenyl-6-pyridin-2-yl-4H-benzo[f]imidazo[1,5-a][1,4]diazepine-3-carboxylic acid ethyl ester] | 0/8^a | 59- s | 255 | > 500 |  |  |  |  |  |
| C#Cc1ccc2c(c1)C(c1ccccc1F)=NCc1c(C(=O)OCC)ncn1-2 [JY-XHe-053 (15), Ethyl-8-acetyleno-6-(2′-fluorophenyl)-4H-benzo[f]imidazo[1,5-a][1,4]diazepine-3-carboxylate] |  |  | 289 | > 400 | 0/2^b | 38- s | 0.671 | 12.3 | 22 |
| C#Cc1ccc2c(c1)C(c1ccccc1)=N[C@H](C)c1nnc(C)n1-2 [SH-TR-CH3 (146), (4R)-8-Ethynyl-1,4-dimethyl-6-phenyl-4H-benzo[f][1,2,4]triazolo[4,3-a][1,4]diazepine] |  |  |  |  |  |  | 1950 | 1530 | 7370 |

Reference: US20100261711A1, “SELECTIVE ANTICONVULSANT AGENTS AND THEIR USES” (WiSys Technology Foundation, priority 2009, published 2010)
